Data taken from patent US6384077B1, “Highly purified EPA for treatment of schizophrenia and related disorders” (Laxdale Limited, priority 1999, dated 2002).

Legend:
Format in all cases: in vivo, human
severe depression = assay: case history: severe depression, ethyl-EPA added to citalopram; details: 1 g/day in addition to citalopram, after four weeks
From the text: In addition to citalopram they were then given 1 g/day of ethyl-EPA. […] Another case was a young person who dropped out of college with a schizophrenic breakdown.

schizophrenia = assay: case history: schizophrenia, ethyl-EPA added to haloperidol; details: 4 g/day in addition to haloperidol, eight weeks
From the text: A person had become ill with schizophrenia. They had florid hallucinations and paranoia, but also withdrew themself from most of their friendships and lived alone. […] They lived alone, ceased to communicate with most of their friends, and went around to town alone and muttering to […]. Their psychiatrist heard about ethyl-EPA and decided to try it in addition to the standard drug. After eight weeks on treatment with 4 g/day their outlook was transformed. […] They were even persuaded to go on holiday with their family where they enjoyed themself and made new friends. The EPA therefore reversed the extreme withdrawal which appeared to have been exaggerated by haloperidol.

[1] = system: attention deficit hyperactivity disorder (ADHD); assay: case report: child with ADHD; details: two capsules per day, after two weeks
From the text: Attention deficit hyperactivity disorder (ADHD): ADHD and closely related conditions like attention deficit disorder and conduct disorders are commonly found in children. Occasionally they may be successfully treated by behaviour modification and other psychological techniques or by careful attention to diet. However, in most cases, paradoxical treatment with one of the stimulant drugs related in their action to amphetamine is required. Methylphenidate and dextroamphetamine are the commonest used. A child with serious ADHD since infancy was driving their parents to distraction. […] The parents were concerned about the long term consequences of stimulant drugs. The child was therefore tried on two capsules of pure ethyl-EPA per day. […] The child became less tense and irritable, less hyperactive, more open to reasoned discussion and enormously less disruptive both at home and school. Even when their methylphenidate was stopped, their behaviour remained improved.

depression = assay: case report: depressed person, Hamilton Depression Rating Scale; details: 1 g/day 96% ethyl-EPA, after about 3-4 weeks
From the text: Our attention was unexpectedly drawn to the importance of highly purified EPA by our experience with a patient, a depressed women aged 35 years. […] […] […] They continued the EPA-rich oil for a further two months without any further change. […] As a result of this, and of thinking about the evidence relating to the binding of EPA to FACL-4 and presumably to other proteins, we came to the conclusion that it was important for clinical efficacy to administer EPA in a highly purified form for maximum clinical effectiveness.

[2] = system: panic and anxiety disorders; assay: case histories: panic and anxiety disorders
Procedure: We have now treated several patients who have panic and anxiety disorders with purified ethyl-EPA with excellent effect. Three case histories follow. A person was disabled as a result of frequent and uncontrollable panic attacks and palpitations. […] They were then given a dose of 2 g per day of ethyl EPA as four 500 mg capsules. […] A person had suffered from mild anxiety and panic attacks for most of their life but these had become much worse over the previous few years in association with various problems with their children. Anxiolytics and antidepressants had only modest effects and their palpitations were uncontrolled even by relatively high doses of beta-blockers. Again they were treated with ethyl-EPA over a period of four months. […] The third patient was a housewife who had been through two divorces and was now in a long-term relationship. They had several panic attacks every week, sometimes in the middle of the night, and always accompanied by strong palpitations which were very worrying for them. These panic attacks were accompanied by depression. They were very reluctant to go out for fear of having an attack and this seriously disrupted their life. Again, antidepressants, beta-blockers and anxiolytics had had only limited beneficial effects. […] Sometimes, they felt that an attack of palpitations might be coming on but it rarely materialised. As a result, they felt increasing confidence and was able to resume a much more normal life.

bipolar disorder = assay: case reports: five patients with bipolar disorder; details: 2 g/day after switch from fish oil
From the text: This provided 1.8-3.6 g of EPA and 1.2-2.4 g of DHA per day. […] They were, however, far from completely normal. When the pure ethyl-EPA became available, they were switched from the fish oil to the pure EPA at a dose of 2 g/day in the form of four 0.5 g soft gelatin capsules. […] In particular they all noted an improvement in something which is difficult to measure by conventional psychiatric rating scales. This is a sense of inner tension or dysphoria, a state which is associated with the illness, but which may be exaggerated or changed by antipsychotic drugs to a state of confused tension, sometimes described as a sense of the brain being replaced by cotton wool, and a difficulty of thinking clearly in a straight line. […] They had not noticed this effect which being treated with the higher dose of EPA in the form of the EPA/DHA mix in fish oil.

[3] = system: clozapine-induced hypersalivation; assay: three clozapine-treated patients with hypersalivation
From the text: Clozapine is regarded as a particularly effective drug by many psychiatrists but it has a range of severe side effects. From the patient's point of view one of the most troublesome is hypersalivation. This may not sound very serious but the constant flow of large volumes of saliva is in fact very distressing for the patient and for those who are associated with the patient. The mechanism of the hypersalivation is unknown.

[4] = system: schizophrenia, drug-induced obesity; details: ethyl-EPA in addition to olanzapine, six months
From the text: Obesity is another common side effect of antipsychotropic drugs. In this respect some of the newer drugs like olanzapine frequently seem to be even worse offenders than the typical neuroleptics. […] They preferred the olanzapine but it still left their withdrawn and unable to communicate normally with friends or family. To their distress it caused them to put on over 10 kg in weight. Their doctor decided to test ethyl-EPA in addition to olanzapine.

[5] = system: patients who had schizophrenia; assay: randomised, placebo-controlled study of ethyl-EPA in clozapine-treated patients with schizophrenia (PANSS, MADRS); details: 1 g or 2 g per day versus placebo, 12 weeks
From the text: Although the case reports of the effects of ethyl-EPA are convincing and in some cases dramatic, unequivocal proof of its efficacy must come from randomised, placebo-controlled trials. We therefore set up a randomised, placebo-controlled study of EPA in 34 patients who had schizophrenia according to the criteria set out in the American Psychiatric Association's Diagnostic and Statistical Manual of Mental Disorders (4th edition, DSM-IV). All of these patients were being treated with clozapine drugs but all remained seriously ill, with schizophrenic symptoms. Like many schizophrenics, some of the patients were also depressed. All were assessed at baseline and after 12 weeks using the Positive and Negative Symptom Scale for Schizophrenia (PANSS) and the Montgomery-Asberg Depression Rating Scale (MADRS). After giving informed consent, all the patients were randomised on a double blind basis to one of three groups: placebo, or 1 g or 2 g of ethyl-EPA per day in the form of 0.5 g capsules. Placebo and EPA capsules were indistinguishable from one another in appearance. All the patients improved to some degree so all the changes are percentage improvements

## CC/C=C\C/C=C\C/C=C\C/C=C\C/C=C\CCCC(=O)OCC [ethyl-EPA]
Severe depression
  effect on mood: lightening of mood
schizophrenia
  residual hallucinations: residual hallucinations disappeared
[1]
  behaviour in ADHD: substantial improvement in behaviour
depression
  Hamilton scores: below 6
[2]; housewife, four months
  panic attacks and palpitations: dramatic reduction in their panic attacks and palpitations
[2]; person, 2 g per day, three months
  panic attacks and palpitations: almost absent
[2]; person, four months
  anxiety and panic attacks: much less severe
Bipolar disorder
  clinical condition in bipolar disorder: clinical condition improved considerably
  sense of dysphoria, tension and cotton-wool thinking: greatly reduced or disappeared altogether
[3]
  psychiatric state: substantial improvement in psychiatric state
  salivation: dramatically reduced the salivation to normal levels
[4]
  withdrawn state: gradually improved
[5]
  side effects: no reported side effects attributable to the E-EPA
